≈ marks a conversion by molar mass, not a printed value.
Legend:
[1] = Cu(II) complex formation and stability constants by UV-Vis spectrophotometric titrations; type: physicochemical; conditions: for pCu (= −log[Cu(II)]): pH 7.4, c Cu(II) = 1 μM, computed from stability constants
Procedure: The complex formation processes of L^1, L^5 and L^6 with Cu(II) ions were studied by UV-Vis spectrophotometry in 30% (v/v) DMSO/H2O using relatively low concentrations (c L = 50–60 μM), due to the limited water solubility of the ligand precursors as well as of the Cu(II) complexes (see thermodynamic solubility data in aqueous media in Table 2 and Table 3). L^1 was selected as the simplest compound of the studied ligand series, whereas L^5 and L^6 were selected to compare with the oxidovanadium(IV) system ([Ribeiro et al., 2022]). The solution stability and stoichiometry of the Cu(II) complexes were determined by the evaluation of the UV-Vis spectra recorded at various pH values (representative spectra are shown for the Cu(II) ‒ L^1 and Cu(II) ‒ L^6 systems in Figures 3A,B and for Cu(II) ‒ L^5 in Supplementary Figure S10A). The computed overall stability constants and pK a values of the complexes are collected in Table 3. The formation of only mono-ligand complexes was found with [Cu(LH)]^+, [Cu(L)], and [Cu(LH‒1)]^‒ (and [Cu(LH‒2)]^2‒ in the case of L^6) compositions, and their computed molar absorbance spectra are shown in Figures 3C, D, Supplementary Figure S10B.
An Agilent Cary 8454 diode array spectrophotometer was used to record the UV-Vis spectra in the range of 200–800 nm. Titrations were carried out with a Metrohm 665 Dosimat burette and an Orion 710A pH-meter equipped with a Metrohm combined electrode. A ionic strength of 0.10 M (KCl) was used to keep the activity coefficients constant. The titrations were performed with 0.10 M carbonate-free KOH solution in a 30% (v/v) DMSO/H2O solvent mixture. […] The average water ionization constant (pKw) is 14.53 ± 0.05 in the 30% (v/v) DMSO/H2O solvent mixture. The pKa values of the ligand precursors and the logβ values for the Cu(II) complexes were determined in 30% (v/v) DMSO/H2O in the same way as it was done in our previous publications (9, 11).
Spectrophotometric titrations were carried out on samples containing the ligands at 50 μM concentration, in the pH range from 2.0 to 11.5 in the absence or the presence of 1, 0.5 or 0.25 equiv. Cu(II) ions, using 10 cm^3 sample volumes. Proton dissociation constants (pKa) of the ligand precursors as well as stoichiometry and stability constants of the Cu(II) complexes (β) were calculated by the computer program PSEQUAD (12). The usual definition of overall (β) and stepwise (K) formation constants is used: […]

[2] = target: bovine serum albumin (BSA) (Bos taurus, UniProt P02769); assay: BSA fluorescence quenching; type: binding; design: Affinity constant K ± SD: unit not given here; conditions: fluorescence quenching; HypSpec2014; 1:1 species assumed
Sequence of bovine serum albumin (BSA) (P02769 25-607): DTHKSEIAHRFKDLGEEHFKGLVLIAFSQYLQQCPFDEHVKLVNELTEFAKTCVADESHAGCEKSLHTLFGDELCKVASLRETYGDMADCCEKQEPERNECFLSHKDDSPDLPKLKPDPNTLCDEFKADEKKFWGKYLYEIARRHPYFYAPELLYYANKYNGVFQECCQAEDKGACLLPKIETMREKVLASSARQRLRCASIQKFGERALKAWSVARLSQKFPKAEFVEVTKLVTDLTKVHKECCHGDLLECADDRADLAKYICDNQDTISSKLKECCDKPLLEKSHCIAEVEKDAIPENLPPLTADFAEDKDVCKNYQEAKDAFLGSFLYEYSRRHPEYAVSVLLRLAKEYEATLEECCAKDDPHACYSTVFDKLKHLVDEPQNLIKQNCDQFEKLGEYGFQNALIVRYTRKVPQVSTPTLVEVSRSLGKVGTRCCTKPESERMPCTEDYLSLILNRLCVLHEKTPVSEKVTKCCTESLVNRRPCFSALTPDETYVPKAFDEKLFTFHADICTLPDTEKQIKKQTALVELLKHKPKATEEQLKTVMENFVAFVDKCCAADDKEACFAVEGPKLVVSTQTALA
Procedure: To evaluate the interaction of the compounds, both organic and Cu(II) complexes, with bovine serum albumin (BSA) fluorescence spectra were measured. In a typical fluorescence experiment, to a solution of 1.5 μM of BSA in the same buffer, successive aliquots of a stock solution of each compound in DMSO were added directly to the cuvette (optical path 1.0 cm). The fluorescence emission was recorded between 310 and 600 nm with excitation at 295 nm. The final DMSO % was kept below 2% (v/v). The Stern-Volmer plots were built using the emission at 340 nm and blank samples (in the absence of BSA) with the same concentration of the complexes were recorded and subsequently subtracted from the corresponding emission spectra containing the fluorophore. Moreover, the fluorescence emission intensity was corrected for reabsorption and inner filter effects using UV-Vis absorption data recorded for each sample, since all complexes absorb in the measured wavelength range (19, 20).
The interaction of the organic compounds and Cu(II) complexes with BSA was monitored by studying the quenching of albumin’s fluorescence emission with increasing concentrations of the complexes (25). Overall, the intensity of the Trp emission decreases with the addition of the complexes, except for 8 (see Figs. S19). The Stern-Volmer relationship was used to analyse the fluorescence quenching process:
where I0 and I are the fluorescence intensities in the absence and in the presence of quencher, kq is the bimolecular quenching rate, τ0 is the fluorophore lifetime in the absence of the quencher (6.22 ns) (26) and [Q] is the quencher concentration. […] This linear relationship is obeyed for all complexes except 5, where a downward curvature is observed. This can be an indication of two distinct binding sites, corresponding to two populations of fluorophores, one being accessible and other inaccessible or buried inside the protein. In such cases, the Stern-Volmer relation can be modified to (27):
where ΔI = I0 – I, Ka is the Stern-Volmer constant for the accessible fraction and fa is the fraction of accessible fluorophore. […] As first approximation, the total concentration of quencher was used to check the quenching mechanism. […] As all systems presented high absorbance values in the measured range of wavelengths, no excess of quencher was used and, therefore, 1:1 species will be assumed for these interactions.

A-375 cells = assay: Sulforhodamine B (SRB) cell viability assay; type: cell-based; conditions: Homo sapiens, 72 h
Procedure: (§1) Copper compounds were tested, along with the free ligands and cisplatin as the positive control, for their cytotoxicity on both melanoma (A-375) and lung adenocarcinoma (A-549) cell lines in the concentration range 0.78–50 μM. Following 72 h of incubation, cell viability was measured via sulforhodamine B (SRB) assay (Supplementary Figure S25).
(§2) A-375 cells (ATCC, CRL-3222) were grown in Dulbecco’s Modified Eagle Medium with high glucose (Gibco #11965118) and A-549 (ATCC, CCL-185) cells were grown in Dulbecco’s Modified Eagle Medium F-12 (Gibco #11320033), supplemented with 10% FBS (Gibco, #10500064) and Penicillin-Streptomycin (10,000 U/mL, Gibco, #15140122). Cells were incubated at 37 °C, 5% CO2 incubator and subcultured every 3 days.
(§3) All the tested complexes were dissolved in DMSO (10 mM stock solution), and aliquots were stored at -20 °C, thawed on the experiment day and used only once. For SRB cell viability assay, A-375 and A-549 cells were seeded on 96-well plates (4×10^3 cells/well) and treated with serial dilutions of indicated compounds (with a concentration range of 0-50 μM, 72 h). Trichloroacetic acid (TCA) was added to wells for fixation at a final concentration of 10%, for 1 h at 4 °C. Each well was washed five times with ddH2O, dried, and incubated with 0.4% (w/v) SRB dye (50 µL/well) for 30 min at room temperature. The wells were washed with 1% acetic acid (v/v) five times, and 150 µL of 10 mM Tris solution was added to dissolve the stain. Colorimetric measurements were taken at λ = 564 nm. Viability percentage was calculated as follows: % Cell Viability = [100 × (sample Abs.-blank) / (non-treated control Abs.-blank)].

A-549 cells = assay: Sulforhodamine B (SRB) cell viability assay; type: cell-based; conditions: Homo sapiens, A549, 72 h
Procedure: as §1, §2, §3

[3] = design: method as in Ribeiro et al., 2022; conditions: 30% (v/v) DMSO/H2O; t = 25.0°C; I = 0.1 M (KCl); ref Ribeiro et al., 2022; cited from earlier work
[4] = design: method as in Ribeiro et al., 2022; conditions: ligand precursors; pH 7.4; ref Ribeiro et al., 2022; cited from earlier work
[5] = Cu(II) complex of the ligand, 30% (v/v) DMSO/H2O, t = 25.0°C, I = 0.10 M (KCl)
[6] = proton dissociation of the Cu(II) complex, 30% (v/v) DMSO/H2O

O=C(N/N=C/c1ccc2cccc(O)c2n1)c1ccccc1 [L^1]
logβ [Cu(L)] [1, 5]: 17.79 ± 0.02 | logβ [Cu(LH)]^+ [1, 5]: 23.41 ± 0.02 | logβ [Cu(LH‒1)]^‒ [1, 5]: 7.39 ± 0.03 | pCu (= −log[Cu(II)]) ([1]; c L = 1 μM): 8.96 | pCu (= −log[Cu(II)]) ([1]; c L = 10 μM): 12.59 | pK a [Cu(L)] [1, 6]: 10.40 | pK a [Cu(LH)]^+ [1, 6]: 5.62 | Affinity constant K ± SD [2]: (4.6 ± 0.2) × 10^5 | IC50 (A-375 cells): 12.3 ± 0.5 µM | IC50 (A-549 cells): > 50 µM | pK a1 [3]: 2.24 | pK a2 [3]: 9.51 | pK a3 [3]: 11.45 | thermodynamic solubility S 7.4 [4]: 3.7 µM (≈ 1.08 µg/mL)

— article PMC10072326, “Promising anticancer agents based on 8-hydroxyquinoline hydrazone copper(II) complexes” (Frontiers in Chemistry, 2023)
